Test results as given in ChEMBL document CHEMBL1121780, “Synthesis and antiarrhythmic activity of new benzofuran derivatives” (J Med Chem, 1981).
Activity calls are given as the source filed them. No cut-off for these calls is given here.

How the values were obtained:
[1] = Toxicity estimated in mouse as LD50 by intravenous administration; type: organism-based; details: in vivo
Canis familiaris [2] = organism: Canis familiaris; test: Activity against ouabain-induced ventricular arrhythmia was measured as percent of sinus rhythm recovery; Inactive; type: functional, organism-based; details: Canis lupus familiaris; Cardiac ventricle
Canis familiaris [3] = organism: Canis familiaris; test: Duration for the sinus rhythm recovery was measured; type: functional, Canis lupus familiaris
Canis familiaris [4] = test: Activity against ouabain-induced ventricular arrhythmia was measured as percent of sinus rhythm recovery at dose of 2 mg/kg iv; type: functional, Canis lupus familiaris, Cardiac ventricle

Row | Structure (SMILES) | LD50 [1] [mg/kg] | SRR (Canis familiaris [2]) | Duration (Canis familiaris [3]) [min] | SRR (Canis familiaris [4]) [%]
1 | COc1c(NC(C)=O)c(OCCN2CCCCCC2)c(OC)c2occc12 | 33 | inactive |  | 
2 | CNC(=O)Nc1c(OCCN2CCOCC2)c(OC)c2occc2c1OC | 100 | inactive |  | 
3 | COc1c(N)c(OCCN2CCCCC2)c(OC)c2occc12 | 21 | inactive |  | 
4 | CNC(=O)Nc1c(OC)ccc(OC)c1OCCN1CCCCC1 | 135 | inactive |  | 
5 | CNC(=O)Nc1c(OCCN2CCCCC2)c(OC)c2occc2c1OC(C)C | 11 | inactive |  | 
6 | CN/C(S)=N/c1c(OCCN2CCCCC2)c(OC)c2occc2c1OC | 17 | inactive |  | 
7 | COc1c(NC(=O)C(C)C)c(OCCN2CCCCC2)c(OC)c2occc12 | 78 | inactive |  | 
8 | COc1c(NC(C)=O)c(OCCCN2CCCCC2)c(OC)c2occc12 | 40.5 | inactive |  | 
9 | COC(=O)Nc1c(OCCN2CCCCC2)c(OC)c2occc2c1OC | 15 | inactive |  | 
10 | CNC(=O)N(C)c1c(OCCN2CCCCC2)c(OC)c2occc2c1OC | 66 |  | <10 | 100
11 | CNC(=O)Nc1c(OCCCN(C)C)c(OC)c2occc2c1OC | 44 | inactive |  | 
12 | CCOC(=O)Nc1c(OCCN2CCCCC2)c(OC)c2occc2c1OC | 13 | inactive |  | 
13 | CNCCOc1c(NC(C)=O)c(OC)c2ccoc2c1OC | 96 | inactive |  | 
14 | CCN(CC)CCOc1c(NC(C)=O)c(OC)c2ccoc2c1OC | 85 | inactive |  | 
15 | CNC(=O)Nc1c(OCCCCN2CCCC2)c(OC)c2occc2c1OC | 36 | inactive |  | 
16 | COc1c(NC(=O)C(F)(F)F)c(OCCN2CCCCC2)c(OC)c2occc12 | 22 | inactive |  | 
17 | CCCNC(=O)Nc1c(OCCN2CCCCC2)c(OC)c2occc2c1OC | 18.5 | inactive |  | 

Row | Structure (SMILES) | LD50 [1] [mg/kg] | SRR (Canis familiaris [2]) | Duration (Canis familiaris [3]) [min] | SRR (Canis familiaris [4]) [%]
18 | COc1c(NC(C)=O)c(OCCN(C)C)c(OC)c2occc12 | 138 | inactive |  | 
19 | COc1c(NC(=O)NC2CCCCC2)c(OCCN2CCCCC2)c(OC)c2occc12 | 42 | inactive |  | 
20 | CCN(CC)CCCOc1c(NC(=O)NC)c(OC)c2ccoc2c1OC | 76 |  | 15 | 100
21 | CNS(=O)(=O)Nc1c(OCCN2CCCCC2)c(OC)c2occc2c1OC | 39 | inactive |  | 
22 | COc1c(NC(=O)OC2CCCCC2)c(OCCN2CCCCC2)c(OC)c2occc12 | 15 | inactive |  | 
23 | CNC(=O)Nc1c(OC)c(OC)c2occc2c1OCCN1CCCCC1 | 200 | inactive |  | 
24 | CNC(=O)Nc1c(OCC(C)N2CCCCC2)c(OC)c2occc2c1OC (centres undefined) | 36 |  | 60 | 100
25 | CNCCOc1c(NC(=O)NC)c(OC)c2ccoc2c1OC | 67 | inactive |  | 
26 | COc1c(NC(N)=O)c(OCCN2CCCCC2)c(OC)c2occc12 | 40 | inactive |  | 
27 | CCNCCOc1c(NC(C)=O)c(OC)c2ccoc2c1OC | 68 | inactive |  | 
28 | COc1c(NC(=O)NC(C)C)c(OCCN2CCCCC2)c(OC)c2occc12 | 25 | inactive |  | 
29 | COc1c(NC(=O)Nc2ccccc2)c(OCCN2CCCCC2)c(OC)c2occc12 | 9 | inactive |  | 
30 | COc1c(NC(C)=O)c(OCCN2CCOCC2)c(OC)c2occc12 | 200 | inactive |  | 
31 | CNC(=O)Nc1cc2ccoc2cc1OCCN1CCCCC1 | 67 | inactive |  | 
32 | COc1c(NC(=O)NC(C)(C)C)c(OCCN2CCCCC2)c(OC)c2occc12 | 11.5 | inactive |  | 
33 | CCCCNC(=O)Nc1c(OCCN2CCCCC2)c(OC)c2occc2c1OC | 22 | inactive |  | 
